Experimental findings from patent US4424222A, “Pyridobenzodiazepinones, pharmaceutical compositions and method of use thereof” (Karl Thomae GmbH, priority 1982, dated 1984) are described below.

Usually ED50 stands for the dose that gives a 50% effect, or the effect in half of the subjects. Low readings indicate an effect at a small dose, high ones a need for a large dose. As usually defined, the IC50 is the concentration that gives 50% inhibition.

Series [1] can be described thus: Oxotremorine test: inhibition of salivation. Also noted: species or system albino rats (Crl:COBS-CD (SD) BR strain). The conditions noted are these: in vivo, iv; rat, i.v. 15 minutes before oxotremorine 0.083 mg/kg i.v.; double blind. The procedure:
(§1) Oxotremorine, a specific agonist for muscarinic receptors, produces lesions in the mucous membrane of the stomach in rats and increases their secretion of saliva. This test method was chosen so that any selective activity of an antimuscarinic substance on the stomach could be identified.
(§2) 10 female albino rats (of the Crl:COBS-CD (SD) BR strain) with a body weight of from 120 to 150 g were used in each treatment group and were kept without food for 24 hours before the start of the test but given free access to drinking water.
(§3) In order to determine, in preliminary tests, the muscarinic effect of oxotremorine on each of the symptoms studied, a dosage/activity curve was drawn up with at least three dosages for each symptom.
(§4) When testing the antimuscarinic substances, the dosage of oxotremorine which triggered the symptom in question in 90 to 100% of the animals in the preliminary tests was used.
Secretion of saliva: 0.083 mg/kg i.v.
(§5) Each antimuscarinic substance was administered intravenously in uniformly graduated doses 15 minutes before the oxotremorine was administered. Control groups were given corresponding quantities of the solvent and suspending agent without the test substance.
(§6) Immediately after the oxotremorine was administered, the animals were placed in a glass case for 15 minutes and observed.
(§7) The ED50 values were determined using the method described by LITCHFIELD and WILCOXON (J. Pharmacol. Exp. Ther. 96, 99, 1949).

In series [2] the target is muscarinic receptors (cerebral cortex). The series can be described thus: Receptor binding test (3H-N-methylscopolamine displacement), cerebral cortex. Details: species or system Sprague-Dawley rats. The conditions noted are these: 0.3 n molar 3H-NMS, 30° C., 45 minutes, read-out: Receptor binding tests IC50, Cortex. The procedure: (§8) The organ donors were male Sprague-Dawley rats with a body weight of from 180 to 200 g. After the heart, stomach and cerebral cortex had been removed, the remainder of the operation was carried out in ice-cold Hepes-HCl buffer (pH 7.4; 100 m molar NaCl, 10 m molar MgCl2). The smooth muscle of the fundus of the stomach was separated from the mucous membrane of the stomach and subjected to preliminary homogenization. The whole heart was cut up with scissors. All the organs were then homogenized in a Potter apparatus.
(§9) For the binding test, the homogenized organs were diluted as follows:
(§10) The homogenized organ preparations were incubated at a specific concentration of a radio labeled compound and with a series of concentrations of the non-radioactive test substances in an Eppendorf centrifuge tube at 30° C. Then duration of incubation was 45 minutes. 0.3 n molar ^3 H-N-methylscopolamine (^3 H-NMS) was used as the radio labeled compound. After incubation had been brought to an end by centrifuging at 14 000 g, the radioactivity in the pellet was determined. It represents the sum of the specific and non-specific binding of ^3 H-NMS. The proportion of non-specific binding was defined as the radioactivity which was bound in the presence of 1μ molar quinuclidinylbenzylate. Four measurements were taken in each case. The IC50 values of the non-labelled test substances were determined graphically. They represent the concentration of test substance at which the specific binding of ^3 H-NMS to the muscarinic receptors in the various organs was inhibited by 50%.

Series [3] concerns muscarinic receptors (oxotremorine-induced lesions of the gastric mucous membrane). The series can be described thus: Oxotremorine test: anti-ulcerative effect (lesions in mucous membrane of stomach). The conditions noted are these: iv; rat, i.v. 15 minutes before oxotremorine 0.62 mg/kg i.v.; neostigmine 1 mg/kg oral. In kind it is in vivo, albino rats (Crl:COBS-CD (SD) BR strain). The procedure: as §1, §2, §3, §4
Lesions in mucous membrane of stomach: 0.62 mg/kg i.v.
as §5, §6, §7
The effects on lesions of the mucous membrane of the stomach were evaluated as follows:
The lesions of the gastric mucous membrane were produced by intravenous injection of 0.62 mg/kg of oxotremorine 30 minutes after the oral administration of 1 mg/kg of neostigmine (a cholinesterase inhibitor). 60 minutes after the administration of the neostigmine, the animals were killed, the stomachs were removed and opened and examined for the presence of any lesions in the mucous membrane. The protective effect of the test substances was expressed as the percentabge inhibition (percentage of animals without lesions). The ED50 and ED70 values were determined using the method of LITCHFIELD AND WILCOXON (see above).

The nature of series [4]: Mydriasis (effect on pupil size). Details: species or system rats. Conditions: in vivo, iv; rat, pupil size observed for 10 minutes; double blind. As to the method:
The effect of the test substances on the pupil size in rats was investigated as follows:
The substances were administered intravenously to groups of 10 animals in at least three uniformly graduated doses. […] The percentage of test animals in which mydriasis occurred was determined. The ED50 values were again determined using the method of LITCHFIELD and WILCOXON (see above).

Series [5] deals with muscarinic receptors (smooth muscle of the fundus of the stomach). In words: Receptor binding test (3H-N-methylscopolamine displacement), smooth muscle fundus of stomach. Also noted: species or system Sprague-Dawley rats. Conditions: 0.3 n molar 3H-NMS, 30° C., 45 minutes, read-out: Receptor binding tests IC50, Smooth muscle fundus of stomach. As to the method: as §8, §9
Smooth muscle of the fundus of the stomach: 1:100
as §10

In series [6] the target is T1, muscarinic receptors (whole heart) (Rattus norvegicus, UniProt P10980).
T1 construct: All the organs were then homogenized in a Potter apparatus; from tissue; host or cells: whole heart homogenate of male Sprague-Dawley rats
T1 sequence (P10980 1-466): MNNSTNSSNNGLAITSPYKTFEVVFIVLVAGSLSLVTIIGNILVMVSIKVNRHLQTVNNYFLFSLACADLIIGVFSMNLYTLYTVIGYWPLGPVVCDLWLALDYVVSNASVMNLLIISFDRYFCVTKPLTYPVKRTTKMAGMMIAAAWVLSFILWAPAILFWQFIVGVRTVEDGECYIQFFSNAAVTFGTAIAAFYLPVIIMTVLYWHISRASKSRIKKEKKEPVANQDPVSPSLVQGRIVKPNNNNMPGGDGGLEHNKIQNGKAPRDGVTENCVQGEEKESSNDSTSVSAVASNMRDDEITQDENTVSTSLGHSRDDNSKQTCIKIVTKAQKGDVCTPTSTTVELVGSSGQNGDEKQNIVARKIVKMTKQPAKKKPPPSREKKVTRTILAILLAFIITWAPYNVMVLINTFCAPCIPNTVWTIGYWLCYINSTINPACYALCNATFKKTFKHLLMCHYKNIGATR
In words: Receptor binding test (3H-N-methylscopolamine displacement), heart. Details: species or system Sprague-Dawley rats. Conditions: 0.3 n molar 3H-NMS, 30° C., 45 minutes, read-out: Receptor binding tests IC50, Heart. As to the method:
as §8, §9
as §10, with “They represent the concentration of test substance at which the specific binding of ^3 H-NMS to the muscarinic receptors in the various organs was inhibited by 50%.” left out

The nature of series [7]: Water solubility of the base (remark). It is filed as physicochemical. Conditions: free base.

As for `CN1CCC(NC(=O)N2c3ccccc3C(=O)Nc3cccnc32)CC1` [B, 5,11-dihydro-11-[[(1-methyl-4-piperidinyl)amino]carbonyl]-6H-pyrido[2,3-b][1,4]benzodiazepin-6-one], it took a dose of 0.42 mg/kg to reach the 50% effect level in series [1] (ED50 at 0.25 h). Moreover, the values for the IC50 in series [2] and in series [5] were 200 nM and 1200 nM, respectively. Further, the ED50 in series [3] stood at 0.0068 mg/kg. The molecule further returned an ED70 in series [3] of 0.019 mg/kg. In series [4], it took a dose of 0.139 mg/kg to reach the 50% effect level (ED50 at 10 min).

With `CN1CCC(OC(=O)N2c3ccccc3C(=O)Nc3cccnc32)CC1` [A, 5,11-dihydro-11-[[(1-methyl-4-piperidinyl)oxy]carbonyl]-6H-pyrido[2,3,-b][1,4]benzodiazepin-6-one], the IC50 in series [6] was 500 nM; in series [2] it was 100 nM; in series [5] it was roughly 900 nM. This molecule had an ED50 at 0.25 h in series [1] of 0.85 mg/kg. This molecule gave an ED50 in series [3] of 0.01 mg/kg. The molecule further registered an ED70 in series [3] of 0.03 mg/kg. The 50% effect level in series [4] (ED50 at 10 min) was put at a dose of 0.13 mg/kg.

Take `CN1CCN(NC(=O)N2c3ccccc3C(=O)Nc3cccnc32)CC1` [C]: the 50% effect level in series [1] (ED50 at 0.25 h) was put at a dose of 0.056 mg/kg. Also, in series [2], the IC50 was 60 nM. In addition, in series [3], the ED50 is 0.0033 mg/kg and the ED70 worked out at 0.0052 mg/kg. Besides, it took a dose of 0.07 mg/kg to reach the 50% effect level in series [4] (ED50 at 10 min). Further, the IC50 in series [5] turned out to be 900 nM. Moreover, the “water solubility (in words)” value in series [7] is listed as “watersoluble”.
